Results as given in ChEMBL document CHEMBL4819115, “Discovery of potent and selective reversible Bruton's tyrosine kinase inhibitors” (Bioorg Med Chem, 2021).
Values after ≈ are worked out from the molar mass of the structure shown.

How the values were obtained:
[1] = physchem; conditions: FaSSIF
[2] = Kinetic solubility of the compound; format: physicochemical; conditions: read-out: Kinetic_solubility
[3] = Intrinsic clearance in human microsomes; format: ADME, Microsome
[4] = Intrinsic clearance in mouse microsomes; format: ADME, Microsome
[5] = Intrinsic clearance in rat microsomes; format: ADME, Microsome
[6] = Stability of the compound in human plasma assessed as parent compound remaining after 4 hrs; format: ADME, cell-free; conditions: read-out: Stabilty
[7] = Stability of the compound in mouse plasma assessed as parent compound remaining after 4 hrs; format: ADME, cell-free; conditions: read-out: Stabilty
[8] = AUC(0 to 6 hrs) in rat at 10 mg/kg, po; format: ADME, organism-based; parameters: time < 6 hr, route oral, dose 10 mg/kg; conditions: in vivo
[9] = AUC(0 to 4 hrs) in rat at 0.2 mg/kg, iv; format: ADME, organism-based; parameters: time < 4 hr, route intravenous, dose 0.2 mg/kg; conditions: in vivo
[10] = Cmax in rat at 10 mg/kg, po; format: ADME, organism-based; parameters: route oral, dose 10 mg/kg; conditions: in vivo
[11] = Oral bioavailability in rat at 10 mg/kg; format: ADME, organism-based; conditions: in vivo
[12] = Half life in rat at 10 mg/kg, po; format: ADME, organism-based; conditions: in vivo
[13] = Clearance in rat at 0.2 mg/kg, iv; format: ADME, organism-based; conditions: in vivo
[14] = Volume of distribution at steady state in rat at 0.2 mg/kg, iv; format: ADME, organism-based; conditions: in vivo, read-out: Vdss

**Q.** Which solubility [1] does the source give for `CN1CCN(c2ccc(Nc3cc(-c4cccc(-n5ccc6cc(C7CC7)cc(F)c6c5=O)c4CO)cn(C)c3=O)nc2)CC1` here?
**A.** 31 µg/mL (≈ 51.1 µM)

**Q.** For `Cn1cc(-c2nc3c(-c4ccc(CNC(=O)c5nc(C(C)(C)C)no5)c(F)c4)ccnc3[nH]2)cn1`, which solubility kinetic [2] is on record?
**A.** 1.7 µM (≈ 0.807 µg/mL)

**Q.** And the solubility [1]?
**A.** 2 µg/mL (≈ 4.21 µM)

**Q.** With `Cn1cc(-c2nc3c(-c4ccc(C5(NC(=O)c6nc(C(C)(C)C)no6)CC5)cc4)ccnc3[nH]2)cn1` as the compound, how does the solubility [1] read?
**A.** 56 µg/mL (≈ 116 µM)

**Q.** With `Cc1c(-c2nc3c(-c4ccc5c(c4)CCC[C@@H]5NC(=O)c4nc(C(C)(C)C)no4)ccnc3[nH]2)cnn1C(C)C` as the compound, how does the solubility [1] read?
**A.** 28 µg/mL (≈ 52 µM)

**Q.** With `Cc1nn(C(C)C)c(C)c1-c1nc2c(-c3ccc4c(c3)CCC[C@H]4NC(=O)c3nc(C(C)(C)C)no3)ccnc2[nH]1` as the compound, how does the solubility [1] read?
**A.** 56 µg/mL (≈ 101 µM)

**Q.** For `CC(C)n1cc(-c2nc3c(-c4ccc5c(c4)CCC[C@@H]5NC(=O)c4nc(C(C)(C)C)no4)ccnc3[nH]2)cn1`, which solubility [1] is on record?
**A.** 25 µg/mL (≈ 47.7 µM)

**Q.** For `Cn1cc(-c2nc3c(-c4ccc5c(c4)CCC[C@@H]5NC(=O)c4nc(C(C)(C)C)no4)ccnc3[nH]2)cn1`, which solubility [1] is on record?
**A.** 190 µg/mL (≈ 383 µM)

**Q.** With `Cc1nn(C2CCOCC2)cc1-c1nc2c(-c3ccc4c(c3)CCC[C@@H]4NC(=O)c3nc(C(C)(C)C)no3)ccnc2[nH]1` as the compound, how does the solubility [1] read?
**A.** 33 µg/mL (≈ 56.8 µM)

**Q.** Which solubility [1] does the source give for `Cc1c(-c2nc3c(-c4ccc5c(c4)CCC[C@H]5NC(=O)c4nc(C(C)(C)C)no4)ccnc3[nH]2)cnn1C1CCOCC1` here?
**A.** 7 µg/mL (≈ 12.1 µM)

**Q.** With `Cc1nn(C(C)C)c(C)c1-c1nc2nccc(-c3ccc4c(c3)CCCC[C@H]4NC(=O)c3nc(C(C)(C)C)no3)c2[nH]1` as the compound, how does the microsomal CLint [3] read?
**A.** 32 µL/min/mg

**Q.** What about the microsomal CLint [4] of the same compound?
**A.** 75 µL/min/mg

**Q.** And the microsomal CLint [5]?
**A.** 67 µL/min/mg

**Q.** And the remaining at 4 h [6]?
**A.** > 85%

**Q.** And the remaining at 4 h [7]?
**A.** > 85%

**Q.** What about the AUC [8] of the same compound?
**A.** 3030 ng·h/mL

**Q.** What about the AUC [9] of the same compound?
**A.** 79 ng·h/mL

**Q.** What about the Cmax [10] of the same compound?
**A.** 849 ng/mL

**Q.** And the bioavailability [11]?
**A.** 77%

**Q.** What about the half-life [12] of the same compound?
**A.** 116 min

**Q.** And the CL [13]?
**A.** 2.42 L/kg/h

**Q.** What about the Vd [14] of the same compound?
**A.** 2.62 L/kg
